Series [1] is described as follows: Kinetic solubility in aqueous media (nephelometry). It counts as physicochemical. The settings on record: phosphate citrate buffer, pH 7.4, aqueous buffer, kinetic from dmso stock, phosphate citrate buffer pH 7.4, turbidity of three dilution steps; read-out: Solubility Score. How it is done: Kinetic solubility in aqueous media measures the ability of a compound to stay in aqueous solution upon dilution (see example C.3).
DMSO-stock solutions are diluted with a single aqueous buffer solvent in 3 consecutive steps. For every dilution turbidity is measured with a nephelometer.
In the first dilution step, 10 μl of a concentrated stock-solution of the active compound, solubilized in DMSO (5 mM), was added to 100 μl phosphate citrate buffer pH 7.4 and mixed. In the second dilution step, an aliquot (20 μl) of the first dilution step was further dispensed in 100 μl phosphate citrate buffer pH 7.4 and mixed. Finally, in the third dilution step, a sample (20 μl) of the second dilution step was further diluted in 100 μl phosphate citrate buffer pH 7.4 and mixed. All dilutions were performed in 96-well plates. Immediately after the last dilution step the turbidity of the three consecutive dilution steps were measured with a nephelometer. Dilution was done in triplicate for each compound to exclude occasional errors. Based on the turbidity measurements a ranking is performed into 3 classes. Compounds with high solubility obtained a score of 3 and for this compounds the first dilution is clear. Compounds with medium solubility obtained a score of 2. For these compounds the first dilution is unclear and the second dilution is clear. […] The solubility of 112 compounds was measured.

Series [2] relates to A2780 ovarian carcinoma cells. Kind of series: Antiproliferative activity on A2780 cells (MTT). The settings on record: four days of incubation; for IC50: Homo sapiens, A2780, 96 h, read-out: Cellular activity pIC50 (converted). It counts as cell-based, human. How it is done: Cellular activity of the compounds of formula (I) was determined on A2780 tumour cells using a colorimetric assay for cell toxicity or survival (Mosmann Tim, Journal of Immunological Methods 65: 55–63, 1983)(see example C.2).
All compounds tested were dissolved in DMSO and further dilutions were made in culture medium. Final DMSO concentrations never exceeded 0.1% (v/v) in cell proliferation assays. Controls contained A2780 cells and DMSO without compound and blanks contained DMSO but no cells. MTT was dissolved at 5 mg/ml in PBS. A glycine buffer comprised of 0.1 M glycine and 0.1 M NaCl buffered to pH 10.5 with NaOH (1 N) was prepared (all reagents were from Merck).
The human A2780 ovarian carcinoma cells (a kind gift from Dr. T. C. Hamilton [Fox Chase Cancer Centre, Pennsylvania, USA]) were cultured in RPMI 1640 medium supplemented with 2 mM L-glutamine, 50 μg/ml gentamicin and 10% fetal calf serum. Cells were routinely kept as monolayer cultures at 37° C. in a humidified 5% CO2 atmosphere. Cells were passaged once a week using a trypsin/EDTA solution at a split ratio of 1:40. All media and supplements were obtained from Life Technologies. Cells were free of mycoplasma contamination as determined using the Gen-Probe Mycoplasma Tissue Culture kit (supplier: BioMérieux).
Cells were seeded in NUNC™ 96-well culture plates (Supplier: Life Technologies) and allowed to adhere to the plastic overnight. Densities used for plating were 1500 cells per well in a total volume of 200 μl medium. After cell adhesion to the plates, medium was changed and drugs and/or solvents were added to a final volume of 200 μl. Following four days of incubation, medium was replaced by 200 μl fresh medium and cell density and viability was assessed using an MTT-based assay. To each well, 25 μl MTT solution was added and the cells were further incubated for 2 hours at 37° C. The medium was then carefully aspirated and the blue MTT-formazan product was solubilized by addition of 25 μl glycine buffer followed by 100 μl of DMSO. […] Within an experiment, the results for each experimental condition are the mean of 3 replicate wells. For initial screening purposes, compounds were tested at a single fixed concentration of 10^−6 M. For active compounds, the experiments were repeated to establish full concentration-response curves. For each experiment, controls (containing no drug) and a blank incubation (containing no cells or drugs) were run in parallel. The blank value was subtracted from all control and sample values. For each sample, the mean value for cell growth (in absorbance units) was expressed as a percentage of the mean value for cell growth of the control. […] Herein the effects of test compounds are expressed as pIC50 (the negative log value of the IC50-value).

Series [3] deals with histone deacetylase (HeLa nuclear extracts). Briefly: In vitro assay for inhibition of histone deacetylase. It counts as biochemical. Particulars: [3H]acetylated histone H4 peptide substrate. As to the method:
The in vitro assay for inhibition of histone deacetylase (see example C.1) measures the inhibition of HDAC enzymatic activity obtained with the compounds of formula (I).
HeLa nuclear extracts (supplier: Biomol) were incubated at 60 μg/ml with 2×10^−8 M of radiolabeled peptide substrate. As a substrate for measuring HDAC activity a synthetic peptide, i.e. the amino acids 14–21 of histone H4, was used. The substrate is biotinylated at the NH2-terminal part with a 6-aminohexanoic acid spacer, and is protected at the COOH-terminal part by an amide group and specifically [^3H]acetylated at lysine 16. The substrate, biotin-(6-aminohexanoic)Gly-Ala-([^3H]-acetyl-Lys-Arg-His-Arg-Lys-Val-NH2), was added in a buffer containing 25 mM Hepes, 1 M sucrose, 0.1 mg/ml BSA and 0.01% Triton X-100 at pH 7.4. After 30 min the deacetylation reaction was terminated by the addition of HCl and acetic acid. (final concentration 0.035 mM and 3.8 mM respectively). After stopping the reaction, the free ^3H-acetate was extracted with ethylacetate. After mixing and centrifugation, the radioactivity in an aliquot of the upper (organic) phase was counted in a β-counter.
For each experiment, controls (containing HeLa nuclear extract and DMSO without compound), a blank incubation (containing DMSO but no HeLa nuclear extract or compound) and samples (containing compound dissolved in DMSO and HeLa nuclear extract) were run in parallel. In first instance, compounds were tested at a concentration of 10^−5M. […] In each test the blank value was substracted from both the control and the sample values. The control sample represented 100% of substrate deactylation. For each sample the radioactivity was expressed as a percentage of the mean value of the controls. […] Herein the effects of test compounds are expressed as pIC50 (the negative log value of the IC50-value).

≈ marks a conversion by molar mass, not a printed value. A value given as a limit tells only on which side of the number the result lay.

As a reminder, the solubility is how much of the substance goes into solution per volume.

`Cn1nc(C(F)(F)F)cc1-c1ccc(S(=O)(=O)N2CCN(c3ncc(C(=O)NO)cn3)CC2)s1` [Compound 94]: in series [1], the solubility lay within 75.8 to 454 µM (≈ 39.2 to 235 µg/mL). For the same compound, in series [2], the IC50 was 218 nM. In series [3], the “Enzyme activity pIC50” value is 7.497.

For the compound `Cc1cnc(C(=O)Nc2ccc(N3CCN(S(=O)(=O)c4ccc5ccccc5c4)CC3)cc2)cn1` [Compound 85], in series [2], the IC50 is > 10000 nM. Besides, the “Enzyme activity pIC50” value in series [3] is reported as <5.

Consider `CN(C)c1cccc2c(S(=O)(=O)N3CCN(c4ccc(C(=O)NO)cc4)CC3)cccc12` [Compound 72], for which, in series [1], the solubility is < 75.8 µM. For the same compound, the IC50 in series [2] was 942 nM. Further, in series [3], the “Enzyme activity pIC50” value is given as 6.346.

Regarding `O=C(NO)c1cnc(N2CCN(S(=O)(=O)c3ccc(-c4cccc5cccnc45)cc3)CC2)nc1` [Compound 111], the solubility in series [1] is < 75.8 µM. In series [2], the IC50 is 440 nM. Further, in series [3], the “Enzyme activity pIC50” value stood at 7.561.

On to `O=C(NO)c1ccc(N2CCN(S(=O)(=O)c3cc(C(F)(F)F)cc(C(F)(F)F)c3)CC2)cc1` [Compound 75], for which the IC50 in series [2] was 6870 nM. Also, the “Enzyme activity pIC50” value in series [3] is <5.

In the case of `CN(C)CCN(C)Cc1sccc1-c1ccc(S(=O)(=O)N2CCN(c3ncc(C(=O)NO)cn3)CC2)cc1` [Compound 146], the IC50 in series [2] is 119 nM. Besides, the “Enzyme activity pIC50” value in series [3] amounted to 8.565.

On to `O=C(NO)c1cccc(CN2CCN(S(=O)(=O)c3ccc4ccccc4c3)CC2)c1` [Compound 7], for which the “Enzyme activity pIC50” value in series [3] was <5.

In the case of `CC(C)(C)c1ccc(S(=O)(=O)N2CCN(c3ncc(C(=O)NO)cn3)CC2)cc1` [Compound 92], in series [2], the IC50 was 723 nM. In addition, the “Enzyme activity pIC50” value in series [3] stood at 7.876.

For the compound `O=C(NO)c1cnc(N2CCN(S(=O)(=O)c3ccc(-c4ccc(CO)cc4)cc3)CC2)nc1` [Compound 139], in series [2], the IC50 was 55.2 nM. Further, in series [3], the “Enzyme activity pIC50” value is listed as 7.612.

Take `COc1ccc(-c2ccc(S(=O)(=O)N3CCN(c4ncc(C(=O)NO)cn4)CC3)cc2)cc1OC` [Compound 101]: in series [2], the IC50 was 101 nM. Further, the “Enzyme activity pIC50” value in series [3] is listed as 6.671.

Regarding `O=C(NO)c1cnc(N2CCN(S(=O)(=O)c3ccc(-c4ccc5[nH]ccc5c4)cc3)CC2)nc1` [Compound 132], the IC50 in series [2] was 461 nM. Further, the “Enzyme activity pIC50” value in series [3] amounted to 7.162.

As for `CN(C)CCCOc1ccc(-c2ccc(S(=O)(=O)N3CCN(c4ncc(C(=O)NO)cn4)CC3)cc2)cc1` [Compound 156], the IC50 in series [2] is 30 nM. Also, in series [3], the “Enzyme activity pIC50” value amounted to 8.568.

For `O=C(NO)c1cnc(N2CCN(S(=O)(=O)c3ccc(-c4ccccc4OCCN4CCOCC4)cc3)CC2)nc1` [Compound 153], the IC50 in series [2] is 275 nM. Moreover, the “Enzyme activity pIC50” value in series [3] came to 8.7.

Consider `O=C(NO)c1cnc(N2CCN(S(=O)(=O)c3ccc(-c4cc(C(F)(F)F)cc(C(F)(F)F)c4)cc3)CC2)nc1` [Compound 180], for which, in series [2], the IC50 is > 10000 nM. The “Enzyme activity pIC50” value in series [3] is given as <5.

`O=C(NO)c1cc([N+](=O)[O-])ccc1N1CCN(S(=O)(=O)c2ccc(Cl)s2)CC1` [Compound 22]: the “Enzyme activity pIC50” value in series [3] is listed as <5.

On to `O=C(NO)c1cnc(N2CCN(S(=O)(=O)c3ccc(-c4ccc(OCCN5CCOCC5)cc4)cc3)CC2)nc1` [Compound 155], for which the IC50 in series [2] was 87.1 nM. Besides, the “Enzyme activity pIC50” value in series [3] is reported as 7.939.

With `O=C(NO)c1cnc(N2CCN(S(=O)(=O)c3ccc4ccccc4c3)CC2)nc1N1CCN(S(=O)(=O)c2ccc3ccccc3c2)CC1` [Compound 117], the IC50 in series [2] is 1740 nM. Besides, the “Enzyme activity pIC50” value in series [3] is on record as <5.

`Nc1ccc(-c2ccc(S(=O)(=O)N3CCN(c4ncc(C(=O)NO)cn4)CC3)cc2)cc1` [Compound 140]: the IC50 in series [2] is 99.8 nM. Further, in series [3], the “Enzyme activity pIC50” value was found to be 7.739.

For `O=C(NO)c1ccc(C(=O)N2CCN(S(=O)(=O)c3ccc4ccccc4c3)CC2)cc1` [Compound 89], in series [2], the IC50 is 6070 nM. The “Enzyme activity pIC50” value in series [3] stood at 6.423.

For `O=C(NO)c1ccc(N2CCCN(S(=O)(=O)c3ccc4ccccc4c3)CC2)cc1` [Compound 1], in series [2], the IC50 is > 10000 nM. For the same compound, in series [3], the “Enzyme activity pIC50” value was found to be 6.482.

`O=C(NCCO)c1ccc(N2CCN(S(=O)(=O)c3ccc4ccccc4c3)CC2)cc1` [Compound 16]: in series [2], the IC50 is > 10000 nM. Besides, in series [3], the “Enzyme activity pIC50” value is given as <5.

`COc1ccc(OC)c(S(=O)(=O)N2CCN(c3ccc(C(=O)NO)cc3)CC2)c1` [Compound 77]: in series [2], the IC50 was 7100 nM. Moreover, the “Enzyme activity pIC50” value in series [3] is 5.937.

For the compound `O=C(NO)c1cnc(N2CCCN(S(=O)(=O)c3ccc4ccccc4c3)CC2)nc1` [Compound 141], the IC50 in series [2] was 991 nM. In addition, in series [3], the “Enzyme activity pIC50” value was 7.125.

`O=C(Nc1ccc(N2CCN(S(=O)(=O)c3ccc4ccccc4c3)CC2)cc1)c1ccc[nH]c1=O` [Compound 87]: the IC50 in series [2] was > 10000 nM. Further, the “Enzyme activity pIC50” value in series [3] is listed as <5.

For `O=C(NO)c1cnc(N2CCN(S(=O)(=O)c3ccc4c(Cl)cccc4c3)CC2)nc1` [Compound 97], the IC50 in series [2] was 125 nM. For the same compound, in series [3], the “Enzyme activity pIC50” value came to 7.938.

As for `CN(C)Cc1ccc(-c2ccc(S(=O)(=O)N3CCN(c4ncc(C(=O)NO)cn4)CC3)cc2)cc1` [Compound 163], the IC50 in series [2] was 42.7 nM. For the same compound, in series [3], the “Enzyme activity pIC50” value worked out at 8.553.

As for `O=C1CCC(C(=O)Nc2ccc(N3CCN(S(=O)(=O)c4ccc5ccccc5c4)CC3)cc2)N1` (stereo not shown) [Compound 84], the IC50 in series [2] is > 10000 nM. Besides, the “Enzyme activity pIC50” value in series [3] is reported as <5.

For the compound `O=C(Nc1ccc(N2CCN(S(=O)(=O)c3ccc4ccccc4c3)CC2)cc1)c1ccc(=O)[nH]c1` [Compound 86], the IC50 in series [2] was > 10000 nM. Moreover, the “Enzyme activity pIC50” value in series [3] is reported as <5.

As for `O=C(NO)c1cnc(N2CCN(S(=O)(=O)c3ccc(-c4ccc(CN5CCOCC5)cc4)cc3)CC2)nc1` [Compound 162], in series [2], the IC50 is 117 nM and the “Cellular activity pIC50” value came out at 7.039.

For `O=C(NO)c1cnc(N2CCN(S(=O)(=O)c3ccc(-c4ccsc4)cc3)CC2)nc1` [Compound 104], the IC50 in series [2] was 58.5 nM. Besides, the “Enzyme activity pIC50” value in series [3] stood at 8.152.

Source of the values: patent US7205304B2, “Sulfonyl-Derivatives as novel inhibitors of histone deacetylase” (Janssen Pharmaceutica N.V., priority 2002, dated 2007).
